PubChem BioAssay (NCI)
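Tested at 5 concentrations; 48 h exposure; 96-well plates; endpoints linearly interpolated, else capped at highest concentration. Abbreviation: GI50, concentration required for 50% inhibition of growth. TGI: concentration producing complete growth inhibition.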

Experiments:
Assay in all cases: NCI-60 cell line screen, 48 h
786-0 renal = system: 786-0 renal
A498 renal = system: A498 renal
A549 NSCLC = system: A549 NSCLC
ACHN renal = system: ACHN renal
BT-549 breast = system: BT-549 breast
CAKI-1 renal = system: CAKI-1 renal
CCRF-CEM leukemia = system: CCRF-CEM leukemia
COLO 205 colon = system: COLO 205 colon
DU-145 prostate = system: DU-145 prostate
HCC-2998 colon = system: HCC-2998 colon
HCT-116 colon = system: HCT-116 colon
HCT-15 colon = system: HCT-15 colon
HL-60(TB) leukemia = system: HL-60(TB) leukemia
HOP-62 NSCLC = system: HOP-62 NSCLC
HOP-92 NSCLC = system: HOP-92 NSCLC
HS 578T breast = system: HS 578T breast
HT29 colon = system: HT29 colon
IGROV1 ovarian = system: IGROV1 ovarian
K-562 leukemia = system: K-562 leukemia
KM12 colon = system: KM12 colon
LOX IMVI melanoma = system: LOX IMVI melanoma
M14 melanoma = system: M14 melanoma
MALME-3M melanoma = system: MALME-3M melanoma
MCF7 breast = system: MCF7 breast
MDA-MB-231 breast = system: MDA-MB-231 breast
MDA-MB-435 = system: MDA-MB-435
MOLT-4 leukemia = system: MOLT-4 leukemia
NCI-H226 lung = system: NCI-H226 lung
NCI-H23 lung = system: NCI-H23 lung
NCI-H460 lung = system: NCI-H460 lung
NCI-H522 lung = system: NCI-H522 lung
NCI/ADR-RES ovarian = system: NCI/ADR-RES ovarian
OVCAR-3 ovarian = system: OVCAR-3 ovarian
OVCAR-4 ovarian = system: OVCAR-4 ovarian
OVCAR-5 ovarian = system: OVCAR-5 ovarian
OVCAR-8 ovarian = system: OVCAR-8 ovarian
PC-3 prostate = system: PC-3 prostate
RPMI-8226 leukemia = system: RPMI-8226 leukemia
RXF 393 renal = system: RXF 393 renal
SF-268 CNS = system: SF-268 CNS
SF-295 CNS = system: SF-295 CNS
SF-539 CNS = system: SF-539 CNS
SK-MEL-2 melanoma = system: SK-MEL-2 melanoma
SK-MEL-28 melanoma = system: SK-MEL-28 melanoma
SK-MEL-5 melanoma = system: SK-MEL-5 melanoma
SK-OV-3 ovarian = system: SK-OV-3 ovarian
SN12C renal = system: SN12C renal
SNB-19 CNS = system: SNB-19 CNS
SNB-75 CNS = system: SNB-75 CNS
SR leukemia = system: SR leukemia
SW-620 colon = system: SW-620 colon
T-47D breast = system: T-47D breast
TK-10 renal = system: TK-10 renal
U251 CNS = system: U251 CNS
UACC-257 melanoma = system: UACC-257 melanoma
UACC-62 melanoma = system: UACC-62 melanoma
UO-31 renal = system: UO-31 renal

COc1cc2nc(SCc3cc(OC)c(OC)c(OC)c3)n(Cc3ccccc3)c(=O)c2cc1OC
GI50 (786-0 renal): 5.34 µM
TGI (786-0 renal): 27.3 µM
GI50 (A498 renal): 1.62 µM
TGI (A498 renal): 7.87 µM
GI50 (A549 NSCLC): 3.14 µM
TGI (A549 NSCLC): > 100 µM
GI50 (ACHN renal): 4.83 µM
TGI (ACHN renal): 24.1 µM
GI50 (BT-549 breast): 3.32 µM
TGI (BT-549 breast): 20.7 µM
GI50 (CAKI-1 renal): 3.86 µM
TGI (CAKI-1 renal): > 100 µM
GI50 (CCRF-CEM leukemia): 3 µM
TGI (CCRF-CEM leukemia): > 100 µM
GI50 (COLO 205 colon): 1.74 µM
TGI (COLO 205 colon): 6.96 µM
GI50 (DU-145 prostate): 5.38 µM
TGI (DU-145 prostate): > 100 µM
GI50 (HCC-2998 colon): 3.71 µM
TGI (HCC-2998 colon): > 100 µM
GI50 (HCT-116 colon): 2.42 µM
TGI (HCT-116 colon): > 100 µM
GI50 (HCT-15 colon): 1.08 µM
TGI (HCT-15 colon): > 100 µM
GI50 (HL-60(TB) leukemia): 2.14 µM
TGI (HL-60(TB) leukemia): > 100 µM
GI50 (HOP-62 NSCLC): 4.48 µM
TGI (HOP-62 NSCLC): 20.6 µM
GI50 (HOP-92 NSCLC): 1.79 µM
TGI (HOP-92 NSCLC): 8.97 µM
GI50 (HS 578T breast): 2.09 µM
TGI (HS 578T breast): 21.3 µM
GI50 (HT29 colon): 2.76 µM
TGI (HT29 colon): > 100 µM
GI50 (IGROV1 ovarian): 7.82 µM
TGI (IGROV1 ovarian): > 70.5 µM
GI50 (K-562 leukemia): 0.875 µM
TGI (K-562 leukemia): > 100 µM
GI50 (KM12 colon): 2.55 µM
TGI (KM12 colon): > 100 µM
GI50 (LOX IMVI melanoma): 4.35 µM
TGI (LOX IMVI melanoma): > 100 µM
GI50 (M14 melanoma): 2.11 µM
TGI (M14 melanoma): > 26.8 µM
GI50 (MALME-3M melanoma): 2.83 µM
TGI (MALME-3M melanoma): 27 µM
GI50 (MCF7 breast): 0.742 µM
TGI (MCF7 breast): > 100 µM
GI50 (MDA-MB-231 breast): 4.45 µM
TGI (MDA-MB-231 breast): > 66 µM
GI50 (MDA-MB-435): 0.375 µM
TGI (MDA-MB-435): 2.04 µM
GI50 (MOLT-4 leukemia): 3.81 µM
TGI (MOLT-4 leukemia): > 100 µM
GI50 (NCI-H226 lung): 6.85 µM
TGI (NCI-H226 lung): > 100 µM
GI50 (NCI-H23 lung): 6.58 µM
TGI (NCI-H23 lung): > 100 µM
GI50 (NCI-H460 lung): 3.09 µM
TGI (NCI-H460 lung): > 100 µM
GI50 (NCI-H522 lung): 0.744 µM
TGI (NCI-H522 lung): 5.83 µM
GI50 (NCI/ADR-RES ovarian): 2.33 µM
TGI (NCI/ADR-RES ovarian): 26.6 µM
GI50 (OVCAR-3 ovarian): 2.24 µM
TGI (OVCAR-3 ovarian): 8.37 µM
GI50 (OVCAR-4 ovarian): 5.5 µM
TGI (OVCAR-4 ovarian): > 100 µM
GI50 (OVCAR-5 ovarian): 16.3 µM
TGI (OVCAR-5 ovarian): > 100 µM
GI50 (OVCAR-8 ovarian): 6.71 µM
TGI (OVCAR-8 ovarian): > 100 µM
GI50 (PC-3 prostate): 3.27 µM
TGI (PC-3 prostate): > 100 µM
GI50 (RPMI-8226 leukemia): 2.84 µM
TGI (RPMI-8226 leukemia): > 100 µM
GI50 (RXF 393 renal): 1.02 µM
TGI (RXF 393 renal): 10.8 µM
GI50 (SF-268 CNS): 5.28 µM
TGI (SF-268 CNS): 47.4 µM
GI50 (SF-295 CNS): 2.49 µM
TGI (SF-295 CNS): 11.7 µM
GI50 (SF-539 CNS): 2.81 µM
TGI (SF-539 CNS): 16.2 µM
GI50 (SK-MEL-2 melanoma): 2.92 µM
TGI (SK-MEL-2 melanoma): 16.8 µM
GI50 (SK-MEL-28 melanoma): 3.88 µM
TGI (SK-MEL-28 melanoma): > 100 µM
GI50 (SK-MEL-5 melanoma): 0.454 µM
TGI (SK-MEL-5 melanoma): 2.63 µM
GI50 (SK-OV-3 ovarian): 3.18 µM
TGI (SK-OV-3 ovarian): 18.6 µM
GI50 (SN12C renal): 7.65 µM
TGI (SN12C renal): > 100 µM
GI50 (SNB-19 CNS): 5.4 µM
TGI (SNB-19 CNS): 48.2 µM
GI50 (SNB-75 CNS): 0.876 µM
TGI (SNB-75 CNS): 6.23 µM
GI50 (SR leukemia): 0.533 µM
TGI (SR leukemia): > 22.2 µM
GI50 (SW-620 colon): 2.5 µM
TGI (SW-620 colon): > 100 µM
GI50 (T-47D breast): 4.54 µM
TGI (T-47D breast): > 65.9 µM
GI50 (TK-10 renal): 10.8 µM
TGI (TK-10 renal): 32.4 µM
GI50 (U251 CNS): 3.64 µM
TGI (U251 CNS): 19.3 µM
GI50 (UACC-257 melanoma): 5.25 µM
TGI (UACC-257 melanoma): > 100 µM
GI50 (UACC-62 melanoma): 3.22 µM
TGI (UACC-62 melanoma): 50.5 µM
GI50 (UO-31 renal): 3.9 µM
TGI (UO-31 renal): > 100 µM
